# Earlier results as cited in patent publication US20230082651A1, “STABLE AQUEOUS COMPOSITIONS OF PLANTS EXTRACTS AND METHODS OF MAKING THE SAME” (Nulixir Inc., priority 2021, published 2023).
# Conditions: water and n-octanol; categorization at pH=7 unless stated otherwise
row,Molecule,log P
1,CC(C)=CCC[C@](C)(O[C@@H]1O[C@H](CO)[C@@H](O)[C@H](O)[C@H]1O)[C@H]1CC[C@]2(C)[C@@H]1[C@H](O)C[C@@H]1[C@@]3(C)CC[C@H](O)C(C)(C)[C@@H]3[C@@H](O[C@@H]3O[C@H](CO)[C@@H](O)[C@H](O)[C@H]3O)C[C@]12C [ginsenoside rgl],~0.8
2,"COc1ccc(CCc2cc(OC)cc(=O)o2)cc1 [7,8-dihydroyangonin]",~2.9
3,hericerin,~6.4
4,CC(C)=C[C@@H]1CO[C@]23C[C@]4(CO2)[C@H](CC[C@@H]2[C@@]5(C)CC[C@H](O[C@@H]6OC[C@H](O)[C@H](O[C@@H]7O[C@H](CO)[C@@H](O)[C@H](O)[C@H]7O)[C@H]6O[C@@H]6O[C@@H](CO)[C@H](O)[C@H]6O)C(C)(C)[C@@H]5CC[C@]24C)[C@H]3[C@@]1(C)O [bacopasaponin C],~2
5,CC1=C(CO)C(=O)O[C@@H]([C@@H](C)[C@H]2CC[C@H]3[C@@H]4C[C@H](Cl)[C@]5(O)[C@@H](O)C=CC(=O)[C@]5(C)[C@H]4CC[C@]23C)C1 [6a-chloro-5b-hydroxywithaferin A],~3.2
6,COc1ccc([C@@]23CCC(=O)C[C@@H]2N(C)CC3)cc1OC [mesembrine],~1.5
7,COc1cc(/C=C\c2ccc(OC)c(O)c2)oc(=O)c1 [11-hydroxyyangonin],~2.2
8,schisandroside C,~1.6
9,CC(=O)OC1C=CC(=O)N(C(=O)CCc2ccccc2)C1 (stereo not drawn) [pipermethystine],~1.8
10,COc1cc([C@H]2Oc3cc(O)c4c(=O)c(O)c(-c5ccc(O)cc5)oc4c3O[C@@H]2CO)ccc1O [rhodiolin],~2
11,CC(C)=C[C@H]1C[C@](C)(O)[C@H]2[C@H]3CC[C@@H]4[C@@]5(C)CC[C@H](O[C@@H]6O[C@H](CO)[C@@H](O)[C@H](O[C@@H]7O[C@H](CO)[C@@H](O)[C@H](O)[C@H]7O)[C@H]6O[C@@H]6O[C@@H](CO)[C@H](O)[C@H]6O)C(C)(C)[C@@H]5CC[C@@]4(C)[C@@]34CO[C@@]2(C4)O1 [bacoside A3],~2.1
12,COc1nc2c(c(=O)n1C)n(C)c(=O)n2C [methylliberine],~−0.083
13,herinacine A,~2.5
14,CC(C)=CCC[C@](C)(O[C@@H]1O[C@H](CO[C@@H]2O[C@H](CO)[C@@H](O)[C@H](O)[C@H]2O)[C@@H](O)[C@H](O)[C@H]1O)[C@H]1CC[C@]2(C)[C@@H]1[C@H](O)C[C@@H]1[C@@]3(C)CC[C@H](O[C@@H]4O[C@H](CO)[C@@H](O)[C@H](O)[C@H]4O[C@@H]4O[C@H](CO)[C@@H](O)[C@H](O)[C@H]4O)C(C)(C)[C@@H]3CC[C@]12C [ginsenoside rb1],~−1
15,COc1ccc([C@@]23C=CC(=O)C[C@@H]2N(C)CC3)cc1OC [mesembrenone],~1.3
16,COc1c2c(cc3c1-c1c(cc4c(c1OC)OCO4)C[C@H](C)[C@H](C)C3)OCO2 [(−)-schisandrin C],~3.5
17,COc1ccc(C23C=CC(O)CC2N(C)CC3)cc1OC (stereo not drawn) [mesembrenol],~2.4
18,tortuosomine,~3
19,bacopaside B,~2.8
20,COc1cc2c(c(OC)c1OC)-c1c(cc(OC)c(OC)c1OC)C[C@H](C)[C@H](C)C2 [(−)-schisandrin A],~3.6
21,CC(C)=C[C@H]1C[C@](C)(O)[C@@H]2[C@H]3CC[C@@H]4[C@@]5(C)CC[C@H](O[C@@H]6OC[C@H](O)[C@H](O[C@@H]7O[C@H](CO)[C@@H](O)[C@H](O)[C@H]7O)[C@H]6O[C@@H]6O[C@@H](CO)[C@H](O)[C@H]6O)C(C)(C)[C@@H]5CC[C@@]4(C)[C@@]34CO[C@@]2(C4)O1 [bacopaside X],~2.2
22,"COC1=CC(=O)O[C@@H](CCc2ccc3c(c2)OCO3)C1 [7,8-dihydromethysticin]",~2.2
23,(R)-kawain,~2.7
24,"COC1=CC(=O)OC(/C=C/c2ccc(OC)cc2)C1 (stereo not drawn) [5,6-dihydroyangonin]",~2.5
25,COc1cc2c(c(OC)c1OC)-c1c(cc(OC)c(OC)c1OC)C[C@](C)(O)[C@@H](C)C2 [(+)-schisandrin],~5
26,N#C[C@@]1(O[C@@H]2O[C@H](CO)[C@@H](O)[C@H](O)[C@H]2O)C=C[C@@H](O)C1 [tetraphyllin B],~−2.5

# Conditions: as a function of water content
row,solubility in ethanol,Molecule
1,decreases rapidly with water content,COc1ccc2cc3[n+](cc2c1OC)CCc1cc2c(cc1-3)OCO2 [berberine]
